Measurements as given in ChEMBL document CHEMBL1125698, “Using theoretical descriptors in quantitative structure-activity relationships: some toxicological indices” (J Med Chem, 1991).

Key:
[1] = Toxicity determined using Tadpole Narcosis Test; conditions: frog
[2] = Toxicity determined using Konemann's Industrial Pollutants Toxicity Test; conditions: fish
[3] = Toxicity determined using Golden Orfe Fish Test; conditions: leuciscus idus
[4] = test system: Lithobates pipiens; experiment: Inhibition of Rana pipiens muscle activity.; type: functional, frog, Muscle tissue
[5] = The toxicity of compound was determined using Konemann's Industrial Pollutants Toxicity Test
[6] = Toxicity determined using Microtox Test; type: ADME, Bacteria

With c1ccc2ccccc2c1 the “Log C” value [1] was -4.225.
With Cc1cc(Cl)c(Cl)cc1Cl the “Log LC50” value [2] was 0.94.
With C=CCCC the “Log C” value [1] was -2.364.
For CCOC(=O)C(C)C, the “Log C” value [1] was -2.3.
In the case of Clc1cc(Cl)c(Cl)c(Cl)c1, the “Log LC50” value [2] is reported as 0.57.
With CC(Cl)CCl (stereo not given) the “Log LC50” value [2] was 3.01.
With CCCC(=O)OCC the “Log C” value [1] was -2.367.
For CCC(=O)CC, the “Log C” value [1] was -1.861.
With CCCC(C)=O the “Log C” value [1] was -1.785.
For Clc1cc(Cl)c(Cl)cc1Cl, the “Log LC50” value [2] was 0.15.
With Clc1cccc(Cl)c1Cl the “Log LC50” value [2] was 1.11.
With c1ccc2c(c1)ccc1ccccc12 the “Log C” value [1] was -5.791.
In the case of CCCCOC(=O)CCCC, the “Log C” value [1] is reported as -3.504.
With CCCCC(=O)OCC the “Log C” value [1] was -2.716.
In the case of CCCCOCCCC, the “Log LC50” value [3] is reported as -0.303.
For ClC(Cl)C(Cl)Cl [1,1,2,2-TETRACHLOROETHANE], the “Log LC50” value [2] was 2.34.
In the case of ClCCCl [1,2-DICHLOROETHANE], the “Log C” value [1] is reported as -2.374.
With Clc1cc(Cl)cc(Cl)c1 [1,3,5-TRICHLOROBENZENE] the “Log LC50” value [2] was 1.26.
With CCCCCCCO [1-HEPTANOL] the “Log LC50” value [3] was -0.163 and the “Log MBC” value [4] was 0.2.
For CCCCCCO [1-HEXANOL], the “Log LC50” value [3] was -0.315 and the “Log MBC” value [4] was 0.56.
With CCCCCO [1-PENTANOL] the “Log MBC” value [4] was 1.2.
With CCCCC(C)O (stereo not given) [2-HEXANOL] the “Log LC50” value [3] was -0.359.
For CCCC(C)O (stereo not given) [2-PENTANOL], the “Log C” value [1] was -1.861.
With CCC(O)CC [3-PENTANOL] the “Log LC50” value [2] was 4.05.
With CCCCOC(C)=O [ACETIC ACID BUTYL ESTER] the “Log C” value [1] was -2.374.
For CC(=O)OCC(C)C [ACETIC ACID ISOBUTYL ESTER], the “Log C” value [1] was -2.33.
For CCCCCOC(C)=O [ACETIC ACID PENTYL ESTER], the “Log C” value [1] was -2.727.
For CCCOC(C)=O [ACETIC ACID PROPYL ESTER], the “Log C” value [1] was -1.969.
With CC(C)=O [ACETONE] the “Log LC50” value [3] was -2.259, the “Log C” value [1] was -0.924 and the “Log LC50” value [5] was 5.04. The “Log MBC” value [4] was 2.6.
For CC#N [ACETONITRILE], the “Log LC50” value [3] was -2.227.
In the case of CC(=O)c1ccccc1 [ACETOPHENONE], the “Log C” value [1] is reported as -2.891.
For CCO [ALCOHOL], the “Log LC50” value [2] was 5.38, the “Log C” value [1] was -0.484 and the “Log MBC” value [4] was 2.75.
With CCC(C)(C)O [AMYLENE HYDRATE] the “Log LC50” value [3] was -0.907 and the “Log C” value [1] was -1.859.
For Nc1ccccc1 [ANILINE], the “Log MBC” value [4] was 1.3.
For COc1ccccc1 [ANISOLE], the “Log LC50” value [3] was -0.305 and the “Log C” value [1] was -2.493.
In the case of c1ccccc1 [BENZENE], the “Log LC50” value [3] is reported as -0.417, the “Log C” value [1] is reported as -2.905 and the “Log LC50” value [5] is reported as 2.91.
With OCc1ccccc1 [BENZYL ALCOHOL] the “Log MBC” value [4] was 1.3.
With Oc1ccc2ccccc2c1 [BETANAPHTHOL] the “Log MBC” value [4] was 0.
For CBr [BROMOMETHANE], the “Log C” value [1] was -2.263.
In the case of CCC(C)O (stereo not given) [BUTANOL], the “Log LC50” value [3] is reported as -1.477 and the “Log C” value [1] is reported as -1.433.
With CCC(C)=O [BUTANONE] the “Log LC50” value [3] was -1.663 and the “Log C” value [1] was 1.401.
In the case of CCCCO [BUTYL ALCOHOL], the “Log LC50” value [3] is reported as -1.432, the “Log C” value [1] is reported as -1.463 and the “Log MBC” value [4] is reported as 1.78.
For CCCCCl [BUTYL CHLORIDE], the “Log LC50” value [2] was 3.02.
In the case of ClC(Cl)(Cl)Cl [CARBON TETRACHLORIDE], the “Log EC50” value [6] is reported as -0.22.
In the case of Clc1ccccc1 [CHLOROBENZENE], the “Log LC50” value [2] is reported as 2.23.
In the case of ClC(Cl)Cl [CHLOROFORM], the “Log C” value [1] is reported as -3.065 and the “Log MBC” value [4] is reported as 1.5.
With O=C1CCCCC1 [CYCLOHEXANONE] the “Log LC50” value [3] was -0.66.
With OC1CCCC1 [CYCLOPENTANOL] the “Log LC50” value [3] was -0.97.
With O=C1CCCC1 [CYCLOPENTANONE] the “Log LC50” value [3] was -1.359.
With CCOCC [ETHER] the “Log LC50” value [3] was -1.722, the “Log C” value [1] was -1.389 and the “Log LC50” value [5] was 4.46. The “Log MBC” value [4] was 1.93.
For CCOC=O [ETHOXYCARBONYL GROUP], the “Log C” value [1] was -1.111.
In the case of CCOC(C)=O [ETHYL ACETATE], the “Log C” value [1] is reported as -1.502.
With CCCl [ETHYL CHLORIDE] the “Log C” value [1] was -1.655.
In the case of CCOC(=O)CC [ETHYL PROPIONATE], the “Log C” value [1] is reported as -1.898.
In the case of COC=O [FORMIC ACID METHYL ESTER], the “Log C” value [1] is reported as -1.075.
For CCCC(O)CC (stereo not given) [HEXAN-3-OL], the “Log LC50” value [3] was -0.363.
With CC(C)CO [ISOBUTANOL] the “Log LC50” value [3] was -1.43.
In the case of CC(C)O [ISOPROPYL ALCOHOL], the “Log LC50” value [3] is reported as -2.005, the “Log C” value [1] is reported as -0.977 and the “Log LC50” value [5] is reported as 5.07. The “Log MBC” value [4] was 2.55.
For Cc1cccc(C)c1 [M-XYLENE], the “Log LC50” value [2] was 2.55.
For Cc1cccc(O)c1 [METACRESOL], the “Log LC50” value [3] was -0.694.
In the case of CO [METHYL ALCOHOL], the “Log C” value [1] is reported as 0.17 and the “Log MBC” value [4] is reported as 3.09.
In the case of ClCCl [METHYLENE CHLORIDE], the “Log LC50” value [2] is reported as 3.54.
For O=[N+]([O-])c1ccccc1 [NITROBENZENE], the “Log LC50” value [3] was -0.263 and the “Log MBC” value [4] was 0.47.
In the case of C[N+](=O)[O-] [NITROMETHANE], the “Log C” value [1] is reported as -1.08.
In the case of Cc1ccccc1C [O-XYLENE], the “Log LC50” value [2] is reported as 2.52 and the “Log C” value [1] is reported as -3.44.
In the case of CCCCCCCCO [OCTANOL], the “Log LC50” value [3] is reported as -0.594, the “Log C” value [1] is reported as -3.148 and the “Log MBC” value [4] is reported as -0.016.
With CCCCC [PENTANE] the “Log C” value [1] was -2.649.
In the case of Oc1ccccc1 [PHENOL], the “Log LC50” value [3] is reported as -0.256 and the “Log MBC” value [4] is reported as 1.
In the case of CCCO [PROPANOL], the “Log LC50” value [3] is reported as -1.972, the “Log C” value [1] is reported as -1.021 and the “Log MBC” value [4] is reported as 2.4.
For c1ccncc1 [PYRIDINE], the “Log MBC” value [4] was 1.77.
In the case of c1ccc2ncccc2c1 [QUINOLINE], the “Log MBC” value [4] is reported as 0.3.
In the case of CC(C)(C)O [TERT-BUTANOL], the “Log C” value [1] is reported as -1.429.
For C1CCOC1 [TETRAHYDROFURAN], the “Log LC50” value [3] was -1.815.
With Cc1ccc(C(C)C)c(O)c1 [THYMOL] the “Log C” value [1] was -3.574 and the “Log MBC” value [4] was -0.52.
With Cc1ccccc1 [TOLUENE] the “Log LC50” value [2] was 2.87 and the “Log MBC” value [4] was 1.
In the case of CC(Cl)(Cl)Cl [TRICHLOROETHANE], the “Log LC50” value [3] is reported as -0.087 and the “Log LC50” value [2] is reported as 2.85.
In the case of ClC=C(Cl)Cl [TRICHLOROETHYLENE], the “Log LC50” value [3] is reported as -0.293.
